Data reported in ChEMBL document CHEMBL1140514, “Some new acyclic nucleotide analogues as antiviral prodrugs: synthesis and bioactivities in vitro” (Bioorg Med Chem Lett, 2007).

Tests used:
[1] = test system: Human immunodeficiency virus 1; assay: Antiviral activity against HIV1 3B in MT4 cells after 4 days by MTT assay; assay type: functional
[2] = test system: Hepatitis B virus; assay: Antiviral activity against Hepatitis B virus infected human HepG2 cells after 9 days by MTT assay; assay type: functional, organism-based; conditions: HepG2, 216 h
[3] = Therapeutic index, Ratio of TC50 for human HepG2 cells to IC50 for HBV-infected human HepG2 cells; assay type: cell-based; conditions: HepG2 cells (TC50) and HBV-infected HepG2 cells (IC50)
[4] = Cytotoxicity against MT4 cells at 10 ug/ml after 4 days by MTT assay; assay type: cell-based; conditions: human, read-out: Inhibition
[5] = test system: HepG2; assay: Cytotoxicity against human HepG2 cells after 9 days by MTT assay; assay type: functional, cell-based; conditions: HepG2, 216 h

SMILES	TC50 [1]	IC50 [2] [µM]	selectivity ratio [3]	cytotoxicity at 96 h, 10 ug/ml [4] [%]	IC50 [5] [µM]
C[C@H](Cn1cnc2c(N)ncnc21)OCP(=O)(O)O [TENOFOVIR ANHYDROUS]	0.39 10^3uM	12.3	31.4		
C=CCOC(=O)OCOP(=O)(COCCn1cnc2c(N)ncnc21)OCOC(=O)OCC=C.O=C(O)/C=C/C(=O)O	24.6 µM	8.2		22.8	> 30
C=CCOC(=O)OCOP(=O)(CO[C@H](C)Cn1cnc2c(N)ncnc21)OCOC(=O)OCC=C.O=C(O)/C=C/C(=O)O	30.9 µM	7.98			1.61
C[C@H](Cn1cnc2c(N)ncnc21)OCP(=O)(OCOC(=O)OC1CCCC1)OCOC(=O)OC1CCCC1.O=C(O)/C=C/C(=O)O	80.2 µM	7.2		25.5	> 30
C[C@H](Cn1cnc2c(N)ncnc21)OCP(=O)(OCOC(=O)OCc1ccccc1)OCOC(=O)OCc1ccccc1.O=C(O)/C=C/C(=O)O	70.1 µM	5.5	12.7	28.1	> 30
Nc1ncnc2c1ncn2CCOCP(=O)(OCOC(=O)OC1CCCC1)OCOC(=O)OC1CCCC1.O=C(O)/C=C/C(=O)O	22.1 µM	2.46			3.51
Nc1nc(=O)n([C@@H]2CS[C@H](CO)O2)cc1F [EMTRICITABINE]					27.7
CC(C)OC(=O)OCOP(=O)(CO[C@H](C)Cn1cnc2c(N)ncnc21)OCOC(=O)OC(C)C.O=C(O)/C=C/C(=O)O [TENOFOVIR DISOPROXIL FUMARATE]	55.2 µM	5.1	10.8		2.31
C[C@H](Cn1cnc2c(N)ncnc21)OCP(=O)(OCOC(=O)OC1CCCCC1)OCOC(=O)OC1CCCCC1.O=C(O)/C=C/C(=O)O	92.8 µM	5.94	15.6		17.5
Nc1ncnc2c1ncn2CCOCP(=O)(OCOC(=O)OC1CCCCC1)OCOC(=O)OC1CCCCC1.O=C(O)/C=C/C(=O)O	63.2 µM	5.33	11.9		23.1
Nc1ncnc2c1ncn2CCOCP(=O)(O)O [ADEFOVIR]		42.1			
C=CCOC(=O)OCOP(=O)(O)COCCn1cnc2c(N)ncnc21.O=C(O)/C=C/C(=O)O	0.67 10^3uM	10.6			23.7
Nc1ncnc2c1ncn2CCOCP(=O)(O)OCOC(=O)OCc1ccccc1.O=C(O)/C=C/C(=O)O	0.59 10^3uM	43	13.7	9	> 30
Nc1ncnc2c1ncn2CCOCP(=O)(OCOC(=O)OCc1ccccc1)OCOC(=O)OCc1ccccc1.O=C(O)/C=C/C(=O)O	26.5 µM	2.15	12.3	24.9	> 30
